Reference: patent publication US6734139B1, “N-aryl-uracile-based herbicides” (priority 1999, dated 2004)
“And” between values parts separate entries of the source, which are not always exact repeats. Equal entries are not always repeated. Where two headings read alike, the source gives them in different places.

Experiments:
Assay type in all cases: in vivo
weeds = assay: Pre-emergence test (herbicidal action against weeds, Colby)
Description: (§1) The expected action for a given combination of two herbicides can be calculated as follows (cf. COLBY, S. R.: “Calculating synergistic and antagonistic responses of herbicide combinations”, Weeds 15, Pages 20-22, 1967):
(§2) If the actual damage exceeds the calculated value, the combination has a superadditive effect, that is to say a synergistic effect.
The theoretically expected activity for a given combination of three herbicides can likewise be found in the literature mentioned above.
(§3) Solvent: 2 to 3 parts by weight of acetone or N,N-dimethyl-formamide
(§4) Emulsifier: 1 part by weight of alkylaryl polyglycol ether
(§5) To produce a suitable preparation of active compound, 1 part by weight of active compound is mixed with the stated amount of solvent, the stated amount of emulsifier is added and the concentrate is diluted with water to the desired concentration. Formulated products are dissolved in water and then diluted with water to the desired concentration.
(§6) The solutions of the other mixing components (active compounds or safeners) are prepared analogously. The separately prepared solutions of the various mixing components are then combined and, if appropriate, additional substances (formulation auxiliaries, additives, etc.) are added and, if appropriate, water is added to prepare the desired dilution.
(§7) Seeds of the test plants are sown in standard soil. After 24 hours, the soil is sprayed with the preparation of active compound such that the particular amount of active compound desired in each case is applied per unit area. The concentration of active compound in the spray liquor is chosen such that the particular amount of active compound desired in each case is applied in 500 litres of water per hectare. The containers with the test plants are kept in a greenhouse at controlled temperature and controlled illumination until evaluation.
(§8) After three weeks, the degree of damage to the plants is rated in % damage in comparison to the development of the untreated control. The figures denote
(§9) 0%=no effect/no damage (like untreated control)

Veronica = assay: Post-emergence test (herbicidal action, Colby): Veronica; details: single active compound at 8 g of a.i./ha
Description: as §1, §2, §5, §6, §8, §9

Solanum = assay: Post-emergence test (herbicidal action, Colby): Solanum; details: single active compound at 15 g of a.i./ha
Description: as §1, §2, §5, §6, §8, §9

Polygonum = assay: Pre-emergence test (herbicidal action, Colby): Polygonum
Alopecurus = assay: Pre-emergence test (herbicidal action, Colby): Alopecurus
Digitaria = assay: Pre-emergence test (herbicidal action, Colby): Digitaria
Abutilon = assay: Pre-emergence test (herbicidal action, Colby): Abutilon
Datura = assay: Pre-emergence test (herbicidal action, Colby): Datura
Cyperus = assay: Pre-emergence test (herbicidal action, Colby): Cyperus
Setaria = assay: Pre-emergence test (herbicidal action, Colby): Setaria; details: 250 g of a.i./ha
Stellaria = assay: Pre-emergence test (herbicidal action, Colby): Stellaria
Echinochloa = assay: Pre-emergence test (herbicidal action, Colby): Echinochloa; details: 250 g of a.i./ha
Matricaria = assay: Pre-emergence test (herbicidal action, Colby): Matricaria
maize = assay: Pre-emergence test in maize (crop plant compatibility)
Procedure: as §3, §4, §5, §6, §7, §9

Summer wheat = assay: Post-emergence test in barley and wheat: summer wheat; details: for damage, Summer wheat (5 days) / damage, Summer wheat (21 days) / damage, Summer wheat (22 days): 0.1% Renex-36
Procedure: as §5, §6, §9

Durum wheat = assay: Post-emergence test in barley and wheat: durum wheat
Procedure: as §5, §6, §8, §9

Winter wheat = assay: Post-emergence test in barley and wheat: winter wheat
Procedure: as §5, §6, §8, §9

Winter barley = assay: Post-emergence test in barley and wheat: winter barley; details: for damage, Winter barley (21 days): 0.1% Renex-36
Procedure: as §5, §6, §9

Ipomoea = assay: Pre-emergence test (herbicidal action, Colby): Ipomoea; details: 60 g of a.i./ha

## COc1cc(OC)nc(NC(=O)NS(=O)(=O)c2cc(NC=O)ccc2C(=O)N(C)C)n1 [foramsulfuron, 2-[[[[(4,6-dimethoxy-2-pyrimidinyl)-amino]-carbonyl]-amino]-sulphonyl]-4-formylamino-N,N-dimethyl-benzamide]
weeds; Table A27, 15 g of a.i./ha
  Cassia (pre-emergence test): 50
weeds; Table A27, 30 g of a.i./ha
  Abutilon (pre-emergence test): 50
  Polygonum (pre-emergence test): 40

## COCc1cnc(C2=NC(C)(C(C)C)C(=O)N2)c(C(=O)O)c1 (centres unmarked) [imazamox, 2-(4,5-dihydro-4-methyl-4-isopropyl-5-oxo-1H-imidazol-2-yl)-5-methoxymethyl-pyridine-3-carboxylic acid]
Veronica
  damage, Veronica: 0%
Solanum
  damage, Solanum: 0%

## CS(=O)(=O)c1cc(C(F)(F)F)ccc1C(=O)c1cnoc1C1CC1 [isoxaflutole, (5-cyclopropyl-isoxazol-4-yl)-(2-methylsulphonyl-4-trifluoromethyl-phenyl)-methanone]
Polygonum; 30 g of a.i./ha
  Polygonum: 0%
Alopecurus; 60 g of a.i./ha
  Alopecurus: 40%
Digitaria; 30 g of a.i./ha
  Digitaria: 90%
Abutilon; 30 g of a.i./ha, read-out: Abutilon
  pest or weed control at 30 g/ha: 80%
weeds; Table A26, 30 g of a.i./ha
  Avena (pre-emergence test): 30
  Cassia (pre-emergence test): 70
  Digitaria (pre-emergence test): 80
  Echinochloa (pre-emergence test): 30
  Lolium (pre-emergence test): 30
  Matricaria (pre-emergence test): 20
  Setaria (pre-emergence test): 30
weeds; Table A26, 60 g of a.i./ha
  Echinochloa (pre-emergence test): 40
  Lolium (pre-emergence test): 50
  Matricaria (pre-emergence test): 40
  Setaria (pre-emergence test): 30
Datura; 60 g of a.i./ha
  Datura: 90%

## CCOCN(C(=O)CCl)c1c(C)cccc1CC [acetochlor, 2-chloro-N-(ethoxymethyl)-N-(2-ethyl-6-methyl-phenyl)-acetamide]
Cyperus; 125 g of a.i./ha
  Cyperus: 60%
Cyperus; 250 g of a.i./ha
  Cyperus: 60%
Polygonum; 125 g of a.i./ha
  Polygonum: 30%
Polygonum; 250 g of a.i./ha
  Polygonum: 30%
Alopecurus; 125 g of a.i./ha
  Alopecurus: 30%
Digitaria; 125 g of a.i./ha
  Digitaria: 80%
Abutilon; 125 g of a.i./ha
  pest or weed control at 125 g/ha: 0%
Abutilon; 250 g of a.i./ha
  pest or weed control at 250 g/ha: 40%
weeds; Table A20, 125 g of a.i./ha
  Chenopodium (pre-emergence test): 30
  Datura (pre-emergence test): 30
  Galium (pre-emergence test): 0
  Ipomoea (pre-emergence test): 0
weeds; Table A20, 250 g of a.i./ha
  Datura (pre-emergence test): 50
  Galium (pre-emergence test): 20
  Ipomoea (pre-emergence test): 20
  Lolium (pre-emergence test): 90
Setaria
  Setaria: 80%
Stellaria; 125 g of a.i./ha
  Stellaria: 80%
Echinochloa
  Echinochloa: 80%
Matricaria; 125 g of a.i./ha
  Matricaria: 90%

## CCS(=O)(=O)N(C(=O)c1cccs1)c1cc(-n2c(=O)cc(C(F)(F)F)n(N)c2=O)c(F)cc1C#N [I-5, N-[5-(3-amino-2,6-dioxo-4-trifluoromethyl-3,6-dihydro-1(2H)-pyrimidinyl)-2-cyano-4-fluoro-phenyl]-N-(2-thienyl-carbonyl)-1-ethanesulphonamide]
maize; Table A32, 60 g of a.i./ha
  Maize (7 days): 20%
  Maize (12 days): 30%
  Maize (21 days): 18%
maize; Table A32, 90 g of a.i./ha
  Maize (7 days): 60%
  Maize (12 days): 70%
  Maize (21 days): 64%

## CCCN(CCC)c1c([N+](=O)[O-])cc(C(F)(F)F)cc1[N+](=O)[O-] [trifluralin, 1-amino-2,6-dinitro-N,N-di-propyl-4-trifluoromethyl-benzene]
weeds; Table A24, 250 g of a.i./ha
  Cassia (pre-emergence test): 80
  Lolium (pre-emergence test): 95
  Setaria (pre-emergence test): 95
weeds; Table A24, 500 g of a.i./ha
  Echinochloa (pre-emergence test): 95
  Veronica (pre-emergence test): 95

## CCNc1nc(Cl)nc(NC(C)C)n1 [atrazine, 6-chloro-4-ethylamino-2-isopropylamino-1,3,5-triazine]
weeds; Table A25, 500 g of a.i./ha
  Avena (pre-emergence test): 80
  Bromus (pre-emergence test): 70
  Cyperus (pre-emergence test): 50
  Lolium (pre-emergence test): 90

## CCS(=O)(=O)Nc1cc(-n2c(=O)cc(C(F)(F)F)n(C)c2=O)c(F)cc1C(N)=S [I-6, 2-(ethylsulphonylamino)-5-fluoro-4-[3-methyl-2,6-dioxo-4-trifluoromethyl-3,6-dihydro-1(2H)-pyrimidinyl]-benzenecarbothioamide]
maize; Table A30, 60 g of a.i./ha
  Maize (7 days): 30%
maize; Table A30, 90 g of a.i./ha
  Maize (7 days): 60%
  Maize (12 days): 60%
  Maize (21 days): 30%
Summer wheat; 15 g of a.i./ha
  Summer wheat (5 days): 40%
  Summer wheat (21 days): 30%
  damage, Summer wheat (5 days): 50%
  damage, Summer wheat (21 days): 20%
  damage, Summer wheat (22 days): 20%
Summer wheat; 30 g of a.i./ha
  Summer wheat (5 days): 50%
  Summer wheat (21 days): 40%
  damage, Summer wheat (5 days): 60%
  damage, Summer wheat (21 days): 30%
  damage, Summer wheat (22 days): 30%
Durum wheat; 15 g of a.i./ha
  Durum wheat (5 days): 20%
  Durum wheat (21 days): 20%
Durum wheat; 15 g of a.i./ha, 0.1% Renex-36
  damage, Durum wheat (5 days): 20%
Durum wheat; 30 g of a.i./ha
  Durum wheat (5 days): 30%
  Durum wheat (21 days): 20%
Durum wheat; 30 g of a.i./ha, 0.1% Renex-36
  damage, Durum wheat (5 days): 30%
Durum wheat; 30 g of a.i./ha, 22 days, 0.1% Renex-36
  damage, Durum wheat (22 days): 20%
Winter wheat; 4 g of a.i./ha
  Winter wheat (5 days): 20%
  Winter wheat (20 days): 10%
  Winter wheat (22 days): 20%
Winter wheat; 8 g of a.i./ha
  Winter wheat (5 days): 30%
  Winter wheat (20 days): 10%
  Winter wheat (22 days): 20%
Winter wheat; 15 g of a.i./ha
  Winter wheat (5 days): 30%
  Winter wheat (20 days): 20%
Winter wheat; 15 g of a.i./ha, 21 days, 0.1% Renex-36
  damage, Winter wheat (21 days): 10%
Winter barley; 4 g of a.i./ha
  Winter barley (5 days): 30%
  Winter barley (21 days): 50%
  Winter barley (22 days): 10%
Winter barley; 8 g of a.i./ha
  Winter barley (5 days): 40%
  Winter barley (21 days): 50%
  Winter barley (22 days): 20%
Winter barley; 15 g of a.i./ha
  Winter barley (5 days): 60% and 50%
  damage, Winter barley (21 days): 20%
Winter barley; 30 g of a.i./ha
  Winter barley (5 days): 50%
  Winter barley (21 days): 20%
  damage, Winter barley (21 days): 30%

## CS(=O)(=O)c1ccc(C(=O)C2C(=O)CCCC2=O)c(Cl)c1 [sulcotrione, 2-(2-chloro-4-methylsulphonyl-benzoyl)-cyclohexane-1,3-dione]
Cyperus; 30 g of a.i./ha
  Cyperus: 90%
Abutilon; Abutilon, read-out: Abutilon
  pest or weed control at 30 g/ha: 70%
  pest or weed control at 60 g/ha: 80%
Datura; 30 g of a.i./ha
  Datura: 50%
Ipomoea
  Ipomoea: 80%
Stellaria; 60 g of a.i./ha
  Stellaria: 80%
Matricaria; 30 g of a.i./ha
  Matricaria: 40%
